# Read-outs that look alike come from different tables or passages of the source.
# Columns and labels:
# [1] = target: T1, MAO-B (Homo sapiens, UniProt P27338); conditions: cited from earlier work; for pIC50: MAO-B; for IC50: read-out: MAO-B inhibition IC50
# T1 construct: purchased Sigma-Aldrich
# T1 sequence (P27338 1-520): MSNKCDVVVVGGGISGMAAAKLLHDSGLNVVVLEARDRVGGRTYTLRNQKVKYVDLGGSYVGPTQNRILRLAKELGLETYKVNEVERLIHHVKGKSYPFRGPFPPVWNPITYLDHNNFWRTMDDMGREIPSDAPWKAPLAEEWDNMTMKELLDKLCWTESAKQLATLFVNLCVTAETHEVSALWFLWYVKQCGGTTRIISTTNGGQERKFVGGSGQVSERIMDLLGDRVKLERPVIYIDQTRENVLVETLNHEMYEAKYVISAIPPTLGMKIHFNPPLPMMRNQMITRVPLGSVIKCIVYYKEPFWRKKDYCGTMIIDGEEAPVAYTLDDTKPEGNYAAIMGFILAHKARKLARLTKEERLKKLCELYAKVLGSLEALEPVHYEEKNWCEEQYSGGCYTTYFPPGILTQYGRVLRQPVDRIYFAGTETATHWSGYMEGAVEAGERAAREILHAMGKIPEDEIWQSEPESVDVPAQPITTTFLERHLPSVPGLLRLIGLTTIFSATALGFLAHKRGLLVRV
# [2] = target: T1, MAO-B; assay: MAO-B inhibition of prior 3-phenylcoumarins (literature data); format: biochemical; conditions: LiPE = pIC50 - QPlogPo/w, literature IC50
# [3] = target: T2, MAO-A (Homo sapiens, UniProt P21397); assay: continuous spectrophotometric MAO-A inhibition assay; format: biochemical; conditions: 100 µM, 1h
# T2 construct: purchased Sigma-Aldrich
# T2 sequence (P21397 1-527): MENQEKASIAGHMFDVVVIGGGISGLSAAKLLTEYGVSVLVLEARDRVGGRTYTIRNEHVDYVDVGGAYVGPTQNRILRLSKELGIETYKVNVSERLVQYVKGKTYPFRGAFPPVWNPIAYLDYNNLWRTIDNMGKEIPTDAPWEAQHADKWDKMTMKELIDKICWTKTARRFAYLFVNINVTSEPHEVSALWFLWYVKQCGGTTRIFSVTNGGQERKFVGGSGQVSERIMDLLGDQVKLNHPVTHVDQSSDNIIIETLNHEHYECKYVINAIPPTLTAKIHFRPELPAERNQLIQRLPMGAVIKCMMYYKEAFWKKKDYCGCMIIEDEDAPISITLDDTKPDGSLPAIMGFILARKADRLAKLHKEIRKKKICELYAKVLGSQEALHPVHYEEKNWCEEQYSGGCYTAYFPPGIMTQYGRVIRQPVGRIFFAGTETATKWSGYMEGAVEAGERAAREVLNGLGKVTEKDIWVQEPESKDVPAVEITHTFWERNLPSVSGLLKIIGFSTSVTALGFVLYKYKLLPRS
# Description: (§1) Both monoamine oxidase A (MAO-A) and B (MAO-B) protein and the reagents for the chromogenic solution of vanillic acid (4-hydroxy-3-methoxylbenzoic acid, 97% purity), 4-aminoantipyrine (reagent grade), horseradish peroxidase and the substrate tyramine hydrochloride (minimum 99% purity) as well as the potassium phosphate buffer, which was prepared using potassium phosphate dibasic trihydrate (≥99% ReagentPlus™) and potassium phosphate monobasic (minimum 98% purity, molecular biology tested), were purchased from Sigma-Aldrich (St. Louis, MO, USA) for the spectrophotometric assay.
# (§2) The protocol for continuous spectrophotometric assay (Holt et al., [1997]) was followed in the activity measurements. The assay was performed in 0.2 M potassium phosphate buffer pH 7.6 on 96-well plates (Nunc™ 96F microwell plate without a lid, Nunc A/S, Roskilde, DK) in 200 μl total volume. The chromogenic solution containing 1 mM vanillic acid, 500 μM 4-aminoantipyrine and 8 U/ml horseradish peroxidase in 0.2 M potassium phosphate buffer pH 7.6 was mixed anew for each measurement. 5 mM tyramine solution was used as the substrate. In order to determine the activity of both MAO-B and MAO-A, concentration series as duplicates were prepared. The protein was combined with the chromogenic solution and incubated 30 min at 37°C. The background signal was measured using multilabel reader (Victor^TM X4, 2030 Multilabel Reader, PerkinElmer, Waltham, MA, USA) at A490 before reaching the total 200 μl volume by adding 20 μl of tyramine to final concentration of 0.5 mM on the plate. As a result, the final concentration of the chromogenic solution on the plate was 250 μM vanillic acid, 125 μM 4-aminoantipyrine and 2 U/ml horseradish peroxide. After adding the substrate, the plates were measured 300 times every 15 s using 1 s exposure time. The device was set to 37°C for the duration of the experiment.
# (§3) The experiment conditions should produce absorbance change of ~0.35 (Holt et al., [1997]). […] The same wide panel of coumarin derivatives was additionally used to analyze the MAO-A inhibition at 100 μM (Table 1, Supplementary Table S1).
# (§4) The measured data was then fitted on a curve using non-linear regression with the equation for log[inhibitor] vs. response. The IC50 values were therefore determined based on the curve fit. The fitted curves are shown on –log scale in Supplementary Figures S1, S2.
# [4] = target: T1, MAO-B; assay: continuous spectrophotometric MAO-B inhibition assay; format: biochemical; conditions: 10 µM, 2h
# Description: as §1, §2, §3, §4
# [5] = target: T3, ERα (Homo sapiens, UniProt P03372); assay: PolarScreen ER Alpha Competitor Assay (fluorescence polarization); format: binding; conditions: for ER inhibition %: 10 μM
# T3 construct: purchased Life Technologies
# T3 sequence (P03372 1-595): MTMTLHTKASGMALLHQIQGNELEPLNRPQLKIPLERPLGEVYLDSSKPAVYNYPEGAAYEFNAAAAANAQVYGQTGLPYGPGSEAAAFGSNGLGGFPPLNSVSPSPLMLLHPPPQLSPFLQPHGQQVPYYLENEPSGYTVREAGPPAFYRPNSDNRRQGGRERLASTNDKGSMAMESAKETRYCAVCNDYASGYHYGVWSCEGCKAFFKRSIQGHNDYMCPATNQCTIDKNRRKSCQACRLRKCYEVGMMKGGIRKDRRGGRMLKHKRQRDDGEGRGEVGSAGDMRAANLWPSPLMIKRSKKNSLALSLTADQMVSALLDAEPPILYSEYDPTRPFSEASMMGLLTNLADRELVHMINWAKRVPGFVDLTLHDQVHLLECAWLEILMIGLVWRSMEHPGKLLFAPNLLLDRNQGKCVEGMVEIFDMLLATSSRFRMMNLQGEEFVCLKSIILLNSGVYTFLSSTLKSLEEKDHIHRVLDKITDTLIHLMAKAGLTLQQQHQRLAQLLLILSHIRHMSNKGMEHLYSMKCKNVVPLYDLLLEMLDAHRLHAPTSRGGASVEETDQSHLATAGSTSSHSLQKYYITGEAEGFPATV
# Description: The pIC50 values for the derivatives (Table 1, Supplementary Table S1) were measured with green PolarScreen™ ER Alpha Competitor Assay (Life Technologies, CA, The United States of America) kit, following the manufacturer protocol as previously described (Niinivehmas et al., [2016]). The final concentration of the compounds ranged from 0.0007 to 10 000 nM in the dilution series which were performed as duplicates. The molecules were combined with 25 nM ERα and 4.5 nM fluormone in the assay buffer and placed on black low volume 384-well assay plate with NBS surface (Corning, NY, The United States of America). After mixing the assay plate, it was incubated for 2 h in RT. The fluorescence polarization was measured using excitation wave length 485 and emission wave length 535 with bandwidths of 25/20 nm on a 2104 EnVision® Multilabel Plate Reader which had EnVision Workstation version 1.7 (PerkinElmer, MA, The United States of America).
# [6] = target: T4, recombinant human HSD1 (Homo sapiens, UniProt P14061); assay: HSD1 inhibition by HPLC with tritium labeled estrone/estradiol; format: biochemical; conditions: 1 μM
# T4 construct: made in house; host or cells: Sf9 insect cells
# T4 sequence (P14061 1-328): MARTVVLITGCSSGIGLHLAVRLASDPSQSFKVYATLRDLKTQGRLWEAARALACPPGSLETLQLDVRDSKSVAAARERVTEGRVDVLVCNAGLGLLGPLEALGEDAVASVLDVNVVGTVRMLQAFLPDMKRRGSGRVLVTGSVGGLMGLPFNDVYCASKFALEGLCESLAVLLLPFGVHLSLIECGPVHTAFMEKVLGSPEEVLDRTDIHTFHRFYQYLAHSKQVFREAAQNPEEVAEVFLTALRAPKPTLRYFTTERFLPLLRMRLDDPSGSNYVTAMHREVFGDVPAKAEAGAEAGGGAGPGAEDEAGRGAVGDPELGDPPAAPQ
# [7] = from literature IC50 ref Matos et al., 2011a
# [8] = prior 3-phenylcoumarins ref Matos et al., 2011a
# [9] = from literature IC50 ref Matos et al., 2011b
# [10] = prior 3-phenylcoumarins ref Matos et al., 2011b
# [11] = from literature IC50 ref Serra et al., 2012
# [12] = prior 3-phenylcoumarins ref Serra et al., 2012
smiles,measurement,setting,value
Cc1ccc(-c2cc3cc(O)ccc3oc2=O)cc1 [CHEMBL1835225],pIC50,[1]; [7],7.17
same,IC50,[1]; [8],67.1 nM
same,LiPE,[2],4.42
COc1ccc(-c2cc3cc(C)ccc3oc2=O)cc1Br [CHEMBL1835231],pIC50,[1]; [7],9.13
same,IC50,[1]; [8],0.74 nM
same,LiPE,[2],5.05
Cc1ccc2oc(=O)c(-c3ccccc3)cc2c1 [CHEMBL1783714],pIC50,"[1]; from literature IC50 ref Matos et al., 2009, 2011a, Viña et al., 2012b",6.55
same,IC50,"[1]; prior 3-phenylcoumarins ref Matos et al., 2009, 2011a, Viña et al., 2012b",284 nM
same,LiPE,[2],3.08
O=c1oc2c(O)cc(Br)cc2cc1-c1ccccc1 [CHEMBL1777847],pIC50,[1]; [9],4.51
same,IC50,[1]; [10],30900 nM
same,LiPE,[2],1.45
Cc1ccc2oc(=O)c(-c3ccccc3O)cc2c1 [CHEMBL1835327],pIC50,[1]; [7],6.92
same,IC50,[1]; [8],120 nM
same,LiPE,[2],4.08
Cc1ccc2oc(=O)c(-c3cccc(O)c3)cc2c1 [CHEMBL1835326],pIC50,[1]; [7],6.19
same,IC50,[1]; [8],650 nM
same,LiPE,[2],3.44
COc1cc(OC)cc(-c2cc3cc(C)cc(Br)c3oc2=O)c1 [CHEMBL1221981],pIC50,"[1]; from literature IC50 ref Matos et al., 2010",5.15
same,IC50,"[1]; prior 3-phenylcoumarins ref Matos et al., 2010",7120 nM
same,LiPE,[2],1.02
O=c1oc2c(O)cc(Br)cc2cc1-c1ccc(O)cc1 [CHEMBL1777849],pIC50,[1]; [9],4.77
same,IC50,[1]; [10],16900 nM
same,LiPE,[2],2.46
COc1ccc2oc(=O)c(-c3ccc(C)cc3)cc2c1 [CHEMBL1835224],pIC50,[1]; [7],8.82
same,IC50,[1]; [8],1.52 nM
same,LiPE,[2],5.35
COc1ccc(-c2c(O)c3cc(Cl)ccc3oc2=O)cc1Cl [CHEMBL1934677],pIC50,[1]; [11],5.55
same,IC50,[1]; [12],2790 nM
same,LiPE,[2],1.88
COc1ccc(-c2c(O)c3ccccc3oc2=O)cc1 [CHEMBL1917495],pIC50,[1]; [11],4.16
same,IC50,[1]; [12],69600 nM
same,LiPE,[2],1.49
O=c1oc2c(O)cccc2cc1-c1cccc(O)c1 [derivative 43],MAO-A inhibition %,[3],56.76%
same,MAO-B inhibition %,[4],22.93%
same,ER inhibition %,[5],0.00%
O=c1oc2cc(O)cc(O)c2cc1-c1ccc(O)cc1 [derivative 45],MAO-A inhibition %,[3],43.38%
same,MAO-B inhibition %,[4],21.38%
same,ER inhibition %,[5],0.13%
O=c1oc2c(Cl)cc(Cl)cc2cc1-c1ccc(F)cc1 [derivative 49],MAO-A inhibition %,[3],0.00%
same,MAO-B inhibition %,[4],10.23%
same,ER inhibition %,[5],0.66%
same,HSD1 inhibition %,[6],1.30%
O=c1oc2cc(O)ccc2cc1-c1cccc(O)c1 [derivative 40],MAO-A inhibition %,[3],0.00%
same,MAO-B inhibition %,[4],25.74%
same,ER activity (in words),[5],prominent
same,ER inhibition %,[5],18.58%
Cc1ccc2oc(=O)c(-c3ccc(O)cc3)cc2c1 [CHEMBL577099],LiPE,[2],4.06
O=c1oc2c(O)cccc2cc1-c1ccc(O)cc1 [derivative 44],MAO-A inhibition %,[3],22.39%
same,MAO-B inhibition %,[4],22.52%
same,ER activity (in words),[5],prominent
same,ER inhibition %,[5],96.18%
O=c1oc2cc(O)cc(O)c2cc1-c1cccc(O)c1 [derivative 42],MAO-A inhibition %,[3],48.86%
same,MAO-B inhibition %,[4],23.30%
same,ER inhibition %,[5],0.44%
COc1ccc(-c2c(O)c3ccccc3oc2=O)cc1Cl [CHEMBL1934675],LiPE,[2],1.85

# Reference: publication PMC5840146, “Structure-Activity Relationship Analysis of 3-Phenylcoumarin-Based Monoamine Oxidase B Inhibitors” (Frontiers in Chemistry, 2018)
